Test results published in EP0741709B1, “AROMATIC 2-AMINO-IMIDAZOLE DERIVATIVES AS ALPHA-2A ADRENOCEPTOR AGONISTS” (Allergan Sales, Inc., priority 1994, dated 1995).

Biological target: T1, human α2C (Homo sapiens, UniProt P18825)
T1 construct: expressed in transfected cells; host or cells: CHO (CHO-C4)
T1 sequence (P18825 1-462): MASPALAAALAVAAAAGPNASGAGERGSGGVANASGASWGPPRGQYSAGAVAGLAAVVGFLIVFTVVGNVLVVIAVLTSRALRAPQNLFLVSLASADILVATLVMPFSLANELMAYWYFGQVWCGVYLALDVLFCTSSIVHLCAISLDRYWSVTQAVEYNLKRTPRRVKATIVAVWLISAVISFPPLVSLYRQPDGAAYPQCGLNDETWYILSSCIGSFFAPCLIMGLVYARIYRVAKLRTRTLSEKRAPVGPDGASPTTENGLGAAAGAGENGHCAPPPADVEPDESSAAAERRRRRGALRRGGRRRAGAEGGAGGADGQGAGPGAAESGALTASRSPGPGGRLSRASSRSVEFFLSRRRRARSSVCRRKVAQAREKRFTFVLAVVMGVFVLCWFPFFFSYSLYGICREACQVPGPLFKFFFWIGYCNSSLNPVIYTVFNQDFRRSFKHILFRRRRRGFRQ
Test: Receptor binding assay, [3H]rauwolscine, CHO-C4 cell membranes
Conditions: 22°C, 30 minutes
Experimental: Cell preparation: Chinese hamster ovary (CHO) cells expressing the human α2A and human α2C (CHO-C10 and CHO-C4 respectively) receptors and CHO cells (CHO-RNG) expressing the rat α2B adrenoceptor were grown to near confluence in Dulbecco's modified Eagle's medium supplemented with 10% fetal bovine serum using standard cell culture methods. Cells were harvested by scraping and placed into cold buffer of the following composition: 50 mM Tris-HCl, 5 mM EDTA, pH 7.4). Cells were then homogenized with a Polytron homogenizer for 2 X 10 sec at setting #7, and centrifuged for 20 minutes at 49,000 x g. The pellet fraction was washed (resuspended in Tris-HCl, pH 8 buffer and centrifuged for 15-20 minutes at 49,000 x g) 2 times and stored at -100°C until binding assay.
Binding Studies: The radioligands [^3H]rauwolscine (specific activity 80 Ci/mmol) and [^3H]prazosin (specific activity 76 Ci/mmol) were obtained from New England Nuclear, Boston, MA. Frozen membrane pellet was resuspended in 25 mM glycine/glycine, pH 7.5 and incubated with radioligand under the following conditions: CHO-C10, CHO-RNG, CHO-C4-[^3H]rauwolscine, 22°C, 30 minutes; RKC-[^3H]rauwolscine, 0°C, 120 minutes; and, HCC-[^3H]prazosin, 22°C, 30 minutes in a final volume of 500 ul. At the end of the incubation period, the samples were filtered through glass filters (Whatman GF/B) in a 96 well cell harvester and rapidly washed four times with 4 mL of iced-cold 50 mM Tris-HCl buffer. The filters were then oven dried and transferred to scintillation vials containing 10 mL of Beckman's Ready Protein® scintillation cocktail for counting. Specific binding defined by 10 uM phentolamine for competition studies were as follows: 2.4 nM [^3H]brimonidine-RbICB 62%; 2.4 nM [^3H]rauwolscine-RbICB 75%; 2 nM [^3H]rauwolscine-RbKc 88%; 0.3 nM [^3H] rauwolscine-CHO-C10 99%; 0.4 nM [^3H]rauwolscine-CHO-RNG 99%, 0.3 nM [^3H]prazosin 87%; and 1 nM [^3H]rauwolscine-CHO-C4 90%. Protein concentrations were determined with a protein assay kit from Bio Rad. Binding isotherms, equilibrium dissociation and affinity constants were analyzed and determined by the non-linear least squares curve fitting programs EBDA (BioSoft) or AccuFit Competition/Saturation by Beckman.
The radioligands [^3H)rauwolscine (specific activity 80 Ci/mmol) and [^3H]prazosin (specific activity 76 Ci/mmol) were obtained from New England Nuclear, Boston, MA. Frozen membrane pellet was resuspended in 25 mM glycine/glycine, pH 7.4 and incubated with radioligand under the following conditions: CHO-C10, CHO-RNG, CHO-C4-[^3H]rauwolscine, 22°C, 30 min.; and, HCC-[^3H]prazosin, 22°C, 30 minutes in a final volume of 500 ul. At the end of the incubation period, the samples were filtered through glass fiber filters (Whatman GF/B) in a 96 well cell harvester and rapidly washed four times with 4 mL of iced-cold 50 mM Tris-CHl buffer. The filters were then oven dried and transferred to scintillation vials containing 5 mL of Beckman's Ready Protein® scintillation cocktail for counting. Specific binding defined by 10 uM phentolamine for competition studies were as follows: 0.3 nM[^3H] rauwolscine-CHO-C10 99%; 0.4 nM [^3H]rauwolscine-CHO-RNG 99%, and 0.3 nM [^3H] prazosin-HCC 87%. Protein concentrations were determined with a protein assay kit from Bio Rad. Binding isotherms, equilibrium dissociation and affinity constants were analyzed and determined by the non-linear least squares curve fitting programs AccuFit Competition/Saturation by Beckman.

Compound | Ki [nM]
Cc1ccccc1Nc1ncc[nH]1 | 577
c1ccc(Nc2ncc[nH]2)cc1 | 3240
Brc1c(Nc2ncc[nH]2)ccc2nccnc12 | 9670
COc1ccc(Nc2ncc[nH]2)c(C)c1 | 512
Brc1ccccc1Nc1ncc[nH]1 | 2390
Clc1cccc(Cl)c1Nc1ncc[nH]1 | 1120
Cc1c(Nc2ncc[nH]2)ccc2c1OCCO2 | 19
Clc1ccccc1Nc1ncc[nH]1 | 2250
c1cc2c(c(Nc3ncc[nH]3)c1)CCCC2 | 252
Cc1c(Nc2ncc[nH]2)ccc2c1NCCO2 | 229
